Results taken from patent EP0764149B1, “NOVEL FARNESYL TRANSFERASE INHIBITORS, THEIR PREPARATION AND PHARMACEUTICAL COMPOSITIONS CONTAINING SAME” (RHONE-POULENC RORER S.A., priority 1994, dated 1995).
Like-named read-outs stand apart in the source and are kept apart here.

Tests used:
[1] = target: T1, farnésyltransférase humaine (Homo sapiens, UniProt P49354+P49356); test: Farnesyltransferase inhibition: transfer of (3H) farnesyl from (3H) FPP to p21 H-Ras; type: biochemical; conditions: read-out: Activité inhibitrice IC50
T1 construct: farnésyltransférase humaine purifiée à partir de cultures de cellules THP1; endogenous in cells; host or cells: THP1 cell cultures (enzyme purified from them)
Description: L'activité farnésyltransférase est déterminée par la quantité de (^3H) farnésyl transférée à partir du (^3H) farnésylpyrophosphate [(^3H) FPP) sur la protéine p21 H-Ras. Le mélange réactionnel standard est composé, pour un volume final de 60 µl, de Tris-HCl 50mM, MgCl2 5mM, dithiotréitol 5 mM, octyl-β-D-glucopyranoside 0,2 %, p21 H-ras 200 picomoles, (^3H) FPP (à 61000 dpm/picomole) 4,5 picomoles.
La réaction est initiée par addition d'environ 5 ng de farnésyltransférase humaine purifiée à partir de cultures de cellules THP1. Après incubation pendant 20 minutes à 37°C en plaque de microtitration contenant 96 trous de 1 cm3 par plaque (Titer Plate®, Beckman), la réaction est stoppée par addition de 0,4 cm3 de SDS à 0,1 % dans le méthanol à 0°C. Le mélange est ensuite additionné de 0,4 cm3 d'acide trichloroacétique (TCA) à 30 % dans le méthanol. Les plaques sont laissées pendant 1 heure dans la glace. Le contenu précipité est alors retenu sur membrane en fibre de verre Filtermat®, Pharmacia) avec l'unité de filtration (Combi Cell Harvester®, Skatron) et rincé avec de l'acide trichloroacétique à 6 % dans l'eau distillée. Les membranes sont séchées au four à micro-ondes puis imprégnées de scintillant par fusion sous air chaud de Meltilex® (Pharmacia) et enfin comptées en cpm dans un compteur β-Plate® (LKB). Chaque essai est répété 3 fois.
L'unité d'activité est définie par 1 picomole de (^3H) FPP transférée sur p21 H-Ras en 20 minutes.
Les pourcentages d'inhibition sont obtenus par comparaison des essais avec et sans inhibiteur après déduction des blancs, les IC50 étant mesurées à partir des inhibitions obtenues avec 9 concentrations différentes en utilisant les logiciels Enzfitter® ou Grafit®.

[2] = tested on: farnésylation de la protéine Ras; test: Inhibition of Ras protein farnesylation in THAC cells (Triton X114 extraction, Western blot); type: cell-based; conditions: 24 h culture, read-out: % d'inhibition sur cellules (THAC)
Source text: La lignée cellulaire est la lignée THAC (cellules CCL 39 transfectées par Ha-Ras activé) selon K. Seuwen et coll., EMBO J., 7(1) 161-168 (1988). Les cellules sont ensemencées dans des boîtes de Petri de 6 cm de diamètre contenant un milieu DMEM, sérum de veau foetal 5 %, G418 1 %.
Après 24 heures de culture, le milieu de culture est changé (avec ou sans sérum) et le produit à étudier est ajouté en solution dans le diméthylformamide (DMF), en présence ou en absence de DTT (concentrations finales de 0,5 % en DMF et 0,1mM en DTT). Après 24 heures de culture à 37°C, les cellules sont lysées dans 1 cm3 de tampon de lyse (Tris, HCI 20mM, Triton X114 1 %, MgCl2 5 mM, DIT 7 mM, NaCl 150 mM, pH = 7,4). Les lysats sont clarifiés par centrifugation à 4.000 tours/minute pendant 10 minutes. L'extraction par le Triton X114 permet de séparer la protéine Ras farnésylée de la protéine Ras non farnésylée [C. BORDIER, J. Biol. Chem., 256 (4), 1604-1607 (1981)]. La protéine Ras farnésylée qui est plus hydrophobe se trouve dans la phase détergente tandis que la protéine Ras non farnésylée est dans la phase aqueuse. Les échantillons sont dénaturés par chauffage à 95°C dans du tampon de dénaturation pour électrophorèse et déposées sur un gel de polyacrylamide à 14 %. Lorsque le colorant atteint le bas du gel, les protéines du gel sont transférées sur une membrane PVDF. […]

Compound	IC50 ([1]; unit inferred)	further results
CSCC[C@H](NC(=O)c1cccc2cc(NC[C@@H](N)CS)ccc12)C(=O)O [Exemple 19, N-[6-(2(R)-amino-3-mercapto-propylamino)-naphtyl-1-carbonyl]-L-méthionine]	1.8 nM	inhibition at 50 µM ([2]; à 50 µM): 31%
CSCC[C@H](NC(=O)c1cccc2c(NC[C@@H](N)CS)cccc12)C(=O)OCCS(=O)(=O)c1ccccc1 [Exemple 10]	21 nM	
CS(=O)(=O)CC[C@H](NC(=O)c1cccc2cc(NC[C@@H](N)CS)ccc12)C(=O)O [Exemple 21, acide 2(S)-[6-(2(R)-amino-3-mercapto-propylamino)-1-naphtoylamino]-4-méthylsulfonyl-butanoïque]		IC50 [1]: 4 nM
CSCC[C@H](NC(=O)c1cccc2c(NC[C@@H](N)CS)cccc12)C(=O)OCc1ccccc1 [Exemple 8, ester benzyliquede la N-[5-(2(R)-amino-3-mercapto-propylamino)-naphtyl-1-carbonyl]-L-méthionine]	100 nM	
CSCC[C@H](NC(=O)c1cccc2c(NC(=O)[C@@H](N)CS)cccc12)C(=O)O [Exemple 1, N-[5-(2(R)-amino-3-mercapto-propionylamino)-naphthyl-1-carbonyl}-L-méthionine]	48 nM	
COCCOCCOC(=O)[C@H](CCSC)NC(=O)c1cccc2c(NC[C@@H](N)CS)cccc12 [Exemple 9, ester 2-(2-méthoxyéthoxy) éthyliquede la N-[5-(2(R)-amino-3-mercapto-propylamino)-naphtyl-1-carbonyl]-L-méthionine]	70 nM	
COC(=O)[C@H](CCSC)NC(=O)c1cccc2cc(NC[C@@H](N)CS)ccc12 [Exemple 20, ester méthyliquede la N-[6-(2(R)-amino-3-mercapto-propylamino)-naphtyl-1-carbonyl]-L-méthionine]	80 nM	inhibition at 10 µM ([2]; à 10 µM): 50%
CCCC[C@H](NC(=O)c1cccc2c(NC[C@@H](N)CS)cccc12)C(=O)O [Exemple 5, N-[5-(2(R)-amino-3-mercapto-propylamino)-naphthyl-1 carbonyl]-L-norleucine]	69 nM	
CSCC[C@H](NC(=O)c1cccc2c(NC[C@@H](N)CS)cccc12)C(=O)O [Exemple 3, N-[5-(2(R)-amino-3-mercapto-propylamino)-naphthyl-1-carbonyl]-L-méthionine]	5.6 nM	
